Values of other authors in US5888993A, “Vanadium compounds in the treatment of elevated blood sugar levels” (The University of British Columbia, priority 1997, dated 1999).

How the values were obtained:
Na^+ -K^+ ATPase = settings: cited from earlier work
[1] = test system: rats made diabetic with streptozoticin (STZ); settings: oral / drinking water; cited from earlier work
[2] = in vivo; cited from earlier work
[3] = in vivo; cited from earlier work; remark: listed apart in the source
red blood cells = settings: cytoplasm; cited from earlier work
[4] = cited from earlier work
rat adipocytes = settings: in vitro; cited from earlier work

In the case of [Na+].[Na+].[Na+].[O]=[V]([O-])([O-])[O-] [Sodium orthovanadate], the “inhibition of Na^+ -K^+ ATPase” value (Na^+ -K^+ ATPase) is listed as “potent inhibitor”.

In the case of [O]=[V]([O-])([O-])[O-] [vanadate], the blood glucose [1] is given as “decreased the elevated blood glucose”, the “cardiac performance / secondary complications of diabetes” value [1] is given as “prevented the depression of cardiac performance” and the “absorption from the gastrointestinal tract” value [2] is given as “poorly absorbed”. For the same molecule, the toxicity [3] was “toxic”, the “reduction of vanadate in red blood cells” value (red blood cells) was “reduced to vanadium (IV)” and the in vivo reduction [4] was “reduced in vivo to vanadyl”.

For [O]=[V+2] [vanadyl ion], the “insulin-like stimulation of glucose oxidation” value (rat adipocytes) is listed as “insulin-like stimulation of glucose oxidation”.
